Reference: US20240076347A1, “METHODS FOR PREVENTING FUNGAL INFECTIONS” (Cidara Therapeutics, Inc., priority 2016, published 2024)
Numbered stars: 1 amine (or outer) side, 2 acyl side, 3 side chain; on linkers, the order of the positions; unused ones are H or OH. Bridge positions count the residues as written; N and C are the ends. Square brackets hold non-standard residues; d marks the D form. Peptide text beside a SMILES is read from it. * marks the point of attachment. ξ: configuration not given here. Orn(4R-OH,5R-OCH2CH2NMe3+) = C[N+](C)(C)CCO[C@@H](N[*:3])[C@H](O)C[C@H](N[*:1])C(=O)[*:2]; pTerphenylCO(4''-OnC5H11) = CCCCCOc1ccc(-c2ccc(-c3ccc(C(=O)*)cc3)cc2)cc1; hTyr(3S-OH,4S-OH) = N[C@H](C(=O)O)[C@H](O)[C@@H](O)c1ccc(O)cc1; X1 = C[C@H]1CN([*:1])C(C(=O)[*:2])C1O; Hyp = O=C(O)[C@@H]1C[C@@H](O)CN1; ξT = CC(O)C(N)C(=O)O

What was measured:
[1] = Monkey SC tolerability study; type: in vivo, cynomolgus monkeys
Experimental: Therefore, only local tolerability (and PK) of CD101 by SC administration required evaluation. […] Plasma concentrations were then quantified by liquid chromatography with tandem mass spectrometric detection (LC-MS/MS). Bioavailability from SC dosing was calculated by comparing the calculated area under the concentration-time profile (AUC) from SC against the AUC from IV administration of the same dose.
Therefore, a separate study was designed to evaluate the tolerability of a SC dose of CD101 as a highly concentrated solution (100 mg/mL; 30 mg/kg) in two cynomolgus monkeys. […] The drug reaches a maximum concentration within a few hours then remains nearly constant over the course of 10 days.

[2] = Pharmacokinetic profile in female rats, SC and IV; conditions: rat, in vivo
Text: Pharmacokinetic Profile of CD101. The pharmacokinetic (PK) profile of CD101 in female rats (three per group) was characterized.

[3] = system: C. parapsilosis; assay: Neutropenic murine disseminated candidiasis model, PK/PD target determination; type: in vivo, Candida parapsilosis; conditions: for Static dose: single IP dose, 168 h
Experimental: Infection model. A neutropenic, murine, disseminated candidiasis model was used for the treatment studies. The mice were rendered neutropenic (polymorphonuclear cell count, <100/mm3) by injecting 150 mg/kg of cyclophosphamide (Mead Johnson Pharmaceuticals, Evansville, IN) subcutaneously 4 days before infection, 100 mg/kg of cyclophosphamide 1 day before infection, and additional cyclophosphamide doses (100 mg/kg) on Day 2 and Day 4 after infection to ensure neutropenia throughout the 168 h (7 d) study period. Three mice were included in each treatment and control group.
The organisms were subcultured on SDA plates 24 h prior to infection. The inoculum was prepared by placing 3 to 5 colonies into 5 ml of sterile pyrogen-free 0.15 M NaCl warmed to 35° C. The final inoculum was adjusted to a 0.6 transmittance at 530 nm. The fungal count of the inoculum determined by viable counts on SDA was 6.1±0.2 log10 CFU/ml.
Disseminated infection with the Candida strains was achieved by injection of 0.1 ml of the inoculum via the lateral tail vein 2 h prior to the start of antifungal therapy. At the end of the study period, the animals were sacrificed by CO2 asphyxiation. The kidneys of each mouse were aseptically removed and placed in 0.15 M NaCl at 4° C. The kidneys were homogenized and serially diluted 1:10, and the aliquots were plated onto SDA for viable fungal colony counts after incubation for 24 h at 35° C. The lower limit of detection was 100 CFU/ml. The results are expressed as the mean CFU/kidney for three mice.
Treatment efficacy and pharmacodynamic target determination of CD101. Neutropenic mice were infected with one of 10 Candida strains as described above. […] Five dose levels that varied from 0.25 to 64 mg/kg were administered once in a 0.2-ml volume by IP route for the 168 h study period. Due to enhanced effect against single isolate, additional studies at 0.0156 and 0.0625 mg/kg was examined for C. glabrata 5592. Groups of three mice were used for each dosing regimen and control group. At the end of the treatment period (168 h), the mice were euthanized, and their kidneys were immediately processed for CFU determination as described above.
Data analysis. A sigmoid dose-effect (Hill) model was used to measure the in vivo potency of CD101. The efficacy endpoints included the dose level required to produce a 24 h net static effect (no change in organism burden compared to that at the start of therapy) and the dose required to achieve a 1-log10 reduction in colony counts (relative to the burden at the start of therapy), when achieved. The maximum response (Emax) was measured as the difference in the number of CFU/kidney relative to that of the untreated control animals. The doses associated with the stasis and 1-log10 endpoint for each strain was calculated using the equation: log10 D=[log10 (E/(Emax−E))/N]+log10 ED50, where D is the drug dose, E is the control growth in untreated animals, Emax is the maximal effect, Nis the slope of the dose-response relationship, and ED50 is the dose needed to achieve 50% of the maximal effect. The associated AUC/MIC targets were then calculated for each strain. […] The calculations were performed using both total and free drug concentrations. The coefficient of determination (R^2) was used to estimate the variance that might be due to regression with the PK/PD index. Kruskal-Wallis one-way analysis of variance (ANOVA) was used to determine if the differences in PK/PD targets were significant between the species.

[4] = system: A. fumigatus (ATCC 13073); assay: Disseminated infection of neutropenic ICR mice, prophylaxis, survival; type: in vivo, Aspergillus fumigatus
Experimental: Inoculum Preparation. A. fumigatus (ATCC 13073) growth was taken from 96 hr potato dextrose agar (PDA) and re-suspended in 0.1% Tween 20. The culture was resuspended in 1 mL cold PBS (>1.0×10^8 CFU/mL, OD620 2.3-2.8). The culture was then diluted in PBS to final cellular densities of 2.0×10^5 CFU/mL. The actual colony counts were determined by plating dilutions on PDA plates to confirm inoculation concentration. The actual inoculum count was 1.85×10^5 CFU/mL.
A. fumigatus (ATCC 13073) disseminated infection (IV). Groups of 6 female ICR mice weighing 22±2 g were used. Animals were immunosuppressed by three intraperitoneal (IP) injections of cyclophosphamide (the first at 6 mg/mouse 3 days before inoculation, the second and third at 2 mg/mouse on Day 1 then Day 4 after inoculation). On Day 0, animals were inoculated (0.1 mL/mouse) by intravenous (IV) injection into the tail vein with A. fumigatus (ATCC 13073), 1.85×10^4 CFU per mouse. CD101 at 5, 10 and 20 mg/kg as prophylaxis was administered subcutaneously (SC) once starting 5, 3 or 1 day before inoculation. […]
A 50 percent or more (≥50%) increase in the survival rate compared to the vehicle control group indicates significant anti-infective activity. The health observations including body weight, hunched posture, ruffled fur, immobility and hypothermia were recorded daily for 14 days. Animals found moribund were to be humanely sacrificed with CO2 asphyxiation in the study.

[5] = only two strains achieved the endpoint
[6] = 5, 10 and 20 mg/kg SC on Day −5, −3 and −1

With `CCCCCOc1ccc(-c2ccc(-c3ccc(C(=O)N[C@H]4C[C@@H](O)[C@@H](OCC[N+](C)(C)C)NC(=O)C5C(O)[C@@H](C)CN5C(=O)[C@H]([C@@H](C)O)NC(=O)[C@H]([C@H](O)[C@@H](O)c5ccc(O)cc5)NC(=O)[C@@H]5C[C@@H](O)CN5C(=O)C(C(C)O)NC4=O)cc3)cc2)cc1` (stereo partly drawn) [CD101] ({pTerphenylCO(4''-OnC5H11)}-[Orn(4R-OH,5R-OCH2CH2NMe3+)][ξT][Hyp][hTyr(3S-OH,4S-OH)]T[X1]; lactam 1-C) the “local (injection site) tolerability” value ([1]; single 30 mg/kg SC (100 mg/mL)) was “no sign of irritation or local (injection site) adverse toxicity”, the “bodyweight and food consumption” value ([1]; single 30 mg/kg SC, 10 days follow-up) was “no effect on bodyweight or food consumption” and the Tmax ([2]; SC) was 8 to 24 h. For the same compound, the bioavailability ([2]; sc, 10 mg/kg) was 97%, the half-life ([2]; subcutaneous, 10 mg/kg, read-out: t½ (converted)) was 48 h and the “Stasis 24 h Ave free drug AUC/MIC” value ([3]; 20423.072) was 1.39. The “Stasis free drug AUC0-168 h/MIC” value ([3]; 20423.072) was 9.74, the “Stasis total drug AUC0-168 h/MIC” value ([3]; 20423.072) was 1217.49 and the Static dose ([3]; 20423.072) was 9.62 mg/kg. The “Stasis 24 h Ave free drug AUC/MIC” value ([3]; 20477.048) was 3.82, the “Stasis free drug AUC0-168 h/MIC” value ([3]; 20477.048) was 26.72 and the “Stasis total drug AUC0-168 h/MIC” value ([3]; 20477.048) was 3339.42. For the same compound, the Static dose ([3]; 20477.048) was 52.96 mg/kg, the “median stasis 24 h free drug AUC/MIC target” value [3, 5] was 2.61 and the “median stasis free drug AUC0-168/MIC target” value [3, 5] was 18.2. The 14-day survival ([4]; 5 mg/kg SC 1 hr after infection) was “significant increase in the 14-day survival”, the “increase in the 14-day survival compared to the vehicle group” value [4, 6] was no less than 50% and the “symptoms of infection (body weight, hunched posture, ruffled fur, immobility, hypothermia)” value [4, 6] was “improved”.
